The text below walks through data of PMC8776063, “Aurora Kinase A Is Involved in Controlling the Localization of Aquaporin-2 in Renal Principal Cells” (International Journal of Molecular Sciences, 2022).

One series concerns the target AURKB (Homo sapiens, UniProt Q96GD4). Briefly: NanoBRET assay in HEK293T cells. The series is classed as cell-based. The arrangement: full-length wild-type AURKA, AURKB, and AURKC were obtained as plasmids cloned in frame with a C-terminal NanoLuc-fusion; host or cells: HEK293T.
The target in the next series is T1, PAK4 (Homo sapiens, UniProt O96013).
T1 construct: purchased in-house thermal shift (DSF) kinase panel (SGC Frankfurt); Promega NanoBRET for AURKA/B/C
T1 sequence (O96013 291-591): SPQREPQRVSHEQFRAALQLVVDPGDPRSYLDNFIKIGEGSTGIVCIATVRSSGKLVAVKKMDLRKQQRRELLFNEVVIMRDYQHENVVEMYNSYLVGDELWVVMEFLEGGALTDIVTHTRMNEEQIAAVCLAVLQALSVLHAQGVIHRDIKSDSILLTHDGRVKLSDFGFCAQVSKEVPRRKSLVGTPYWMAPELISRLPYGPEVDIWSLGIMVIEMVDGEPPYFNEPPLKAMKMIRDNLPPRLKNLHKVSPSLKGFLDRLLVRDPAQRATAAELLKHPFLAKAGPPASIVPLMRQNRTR
Briefly: Thermal shift assay. Type of series: binding. The settings on record: read-out: ΔTm PAK4.

Another series addresses T2, STK26 (Homo sapiens, UniProt Q9P289).
T2 construct: purchased in-house thermal shift (DSF) kinase panel (SGC Frankfurt); Promega NanoBRET for AURKA/B/C
Briefly: Thermal shift assay. The settings on record: read-out: ΔTm STK26. Type of series: binding.

A further series concerns the target T3, CHEK2 (Homo sapiens, UniProt O96017).
T3 construct: purchased in-house thermal shift (DSF) kinase panel (SGC Frankfurt); Promega NanoBRET for AURKA/B/C
Nature of the series: Thermal shift assay. The series is classed as binding. The note with it: read-out: ΔTm CHEK2.

Series [1] has as its system CFL1 phosphorylation in MCD4 cells. Nature of the series: CFL1 phosphorylation, Western blotting. Type of series: cell-based, mouse. The settings on record: compound 30 µM, 1 h; for CFL1 phosphorylation in combination with forskolin: forskolin 30 µM, 30 min. (In general: In western blotting, separated proteins are transferred to a membrane and probed.)
For the next series, the target named is T4, DAPK3 (Homo sapiens, UniProt O43293).
T4 construct: purchased in-house thermal shift (DSF) kinase panel (SGC Frankfurt); Promega NanoBRET for AURKA/B/C
T4 sequence (O43293 9-289): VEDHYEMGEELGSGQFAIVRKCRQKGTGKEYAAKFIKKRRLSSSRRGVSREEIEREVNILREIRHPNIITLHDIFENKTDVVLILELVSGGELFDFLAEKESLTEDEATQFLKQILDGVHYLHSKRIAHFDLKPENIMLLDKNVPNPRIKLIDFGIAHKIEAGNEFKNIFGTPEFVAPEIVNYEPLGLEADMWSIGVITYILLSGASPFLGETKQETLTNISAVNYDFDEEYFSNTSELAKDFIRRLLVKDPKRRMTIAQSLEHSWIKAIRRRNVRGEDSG
Briefly: Thermal shift assay. Type of series: binding. The settings on record: read-out: ΔTm DAPK3.

A further series has as its target T5, GSG2 (Homo sapiens, UniProt Q8TF76).
T5 construct: purchased in-house thermal shift (DSF) kinase panel (SGC Frankfurt); Promega NanoBRET for AURKA/B/C
T5 sequence (Q8TF76 465-798): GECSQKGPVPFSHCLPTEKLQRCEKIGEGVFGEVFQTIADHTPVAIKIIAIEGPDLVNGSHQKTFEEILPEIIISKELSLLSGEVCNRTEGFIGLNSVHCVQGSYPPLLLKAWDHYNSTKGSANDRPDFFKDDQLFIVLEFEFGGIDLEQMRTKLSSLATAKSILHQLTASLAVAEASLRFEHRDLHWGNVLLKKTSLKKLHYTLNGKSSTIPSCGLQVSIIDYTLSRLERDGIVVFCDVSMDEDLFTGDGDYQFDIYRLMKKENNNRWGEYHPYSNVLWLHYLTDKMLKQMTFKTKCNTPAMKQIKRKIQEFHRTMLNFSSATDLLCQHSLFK
Briefly: Thermal shift assay. The series is classed as binding. The note with it: read-out: ΔTm GSG2.

The target of another series is T6, CDK2 (Homo sapiens, UniProt P24941).
T6 construct: purchased in-house thermal shift (DSF) kinase panel (SGC Frankfurt); Promega NanoBRET for AURKA/B/C
Briefly: Thermal shift assay. The settings on record: read-out: ΔTm CDK2. The series is classed as binding.

Another series concerns the target T7, GSK3B (Homo sapiens, UniProt P49841).
T7 construct: purchased in-house thermal shift (DSF) kinase panel (SGC Frankfurt); Promega NanoBRET for AURKA/B/C
Nature of the series: Thermal shift assay. The series is classed as binding. The settings on record: read-out: ΔTm GSK3B.

The target of the next series is T8, CAMK1G (Homo sapiens, UniProt Q96NX5).
T8 construct: purchased in-house thermal shift (DSF) kinase panel (SGC Frankfurt); Promega NanoBRET for AURKA/B/C
T8 sequence (Q96NX5 23-277): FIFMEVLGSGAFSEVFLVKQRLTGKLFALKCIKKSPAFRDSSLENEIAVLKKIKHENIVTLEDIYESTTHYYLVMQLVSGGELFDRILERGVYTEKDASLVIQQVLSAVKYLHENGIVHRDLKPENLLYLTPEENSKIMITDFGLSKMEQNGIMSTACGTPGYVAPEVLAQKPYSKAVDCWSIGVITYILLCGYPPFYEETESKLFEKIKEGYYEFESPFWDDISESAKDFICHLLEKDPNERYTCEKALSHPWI
Nature of the series: Thermal shift assay. Type of series: binding. The settings on record: read-out: ΔTm CAMK1G.

A further series deals with T9, CSNK1D (Homo sapiens, UniProt P48730).
T9 construct: purchased in-house thermal shift (DSF) kinase panel (SGC Frankfurt); Promega NanoBRET for AURKA/B/C
T9 sequence (P48730 1-294): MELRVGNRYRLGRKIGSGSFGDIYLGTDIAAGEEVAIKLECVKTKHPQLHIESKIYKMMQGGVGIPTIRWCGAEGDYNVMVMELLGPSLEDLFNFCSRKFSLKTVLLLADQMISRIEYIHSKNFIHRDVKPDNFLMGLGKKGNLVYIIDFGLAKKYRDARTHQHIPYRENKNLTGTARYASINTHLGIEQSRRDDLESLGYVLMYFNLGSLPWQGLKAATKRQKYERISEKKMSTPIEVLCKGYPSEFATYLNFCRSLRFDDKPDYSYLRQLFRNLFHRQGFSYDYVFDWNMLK
Briefly: Thermal shift assay. Type of series: binding. The note with it: read-out: ΔTm CSNK1D.

In another series the target is T10, VRK1 (Homo sapiens, UniProt Q99986).
T10 construct: purchased in-house thermal shift (DSF) kinase panel (SGC Frankfurt); Promega NanoBRET for AURKA/B/C
T10 sequence (Q99986 1-396): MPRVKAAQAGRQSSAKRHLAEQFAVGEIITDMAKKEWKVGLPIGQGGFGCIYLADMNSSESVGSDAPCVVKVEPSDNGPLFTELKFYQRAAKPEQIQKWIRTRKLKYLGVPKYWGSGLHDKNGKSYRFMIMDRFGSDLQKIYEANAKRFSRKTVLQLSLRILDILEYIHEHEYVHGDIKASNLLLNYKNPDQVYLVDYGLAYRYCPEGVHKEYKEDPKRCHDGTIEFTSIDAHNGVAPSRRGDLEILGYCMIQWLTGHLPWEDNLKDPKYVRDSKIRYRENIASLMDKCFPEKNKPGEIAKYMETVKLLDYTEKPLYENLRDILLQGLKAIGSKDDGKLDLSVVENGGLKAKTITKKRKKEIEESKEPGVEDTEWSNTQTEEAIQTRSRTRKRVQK
Nature of the series: Thermal shift assay. The series is classed as binding. The note with it: read-out: ΔTm VRK1.

In another series the target is T11, GRK5 (Homo sapiens, UniProt P34947).
T11 construct: purchased in-house thermal shift (DSF) kinase panel (SGC Frankfurt); Promega NanoBRET for AURKA/B/C
T11 sequence (P34947 186-514): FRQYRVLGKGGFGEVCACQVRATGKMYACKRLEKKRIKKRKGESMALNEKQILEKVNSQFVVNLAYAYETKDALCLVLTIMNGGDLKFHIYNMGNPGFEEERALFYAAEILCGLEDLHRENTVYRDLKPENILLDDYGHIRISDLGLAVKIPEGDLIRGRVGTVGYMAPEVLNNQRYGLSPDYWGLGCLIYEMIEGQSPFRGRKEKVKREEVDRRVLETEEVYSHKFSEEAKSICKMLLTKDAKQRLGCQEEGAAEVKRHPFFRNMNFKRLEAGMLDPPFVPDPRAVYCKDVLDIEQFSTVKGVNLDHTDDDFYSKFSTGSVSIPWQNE
Briefly: Thermal shift assay. The settings on record: read-out: ΔTm GRK5. Type of series: binding.

A further series concerns the target T12, STK38L (Homo sapiens, UniProt Q9Y2H1).
T12 construct: purchased in-house thermal shift (DSF) kinase panel (SGC Frankfurt); Promega NanoBRET for AURKA/B/C
Nature of the series: Thermal shift assay. The series is classed as binding. The settings on record: read-out: ΔTm STK38L.

The next series concerns the target T13, CSNK2A1 (Homo sapiens, UniProt P68400).
T13 construct: purchased in-house thermal shift (DSF) kinase panel (SGC Frankfurt); Promega NanoBRET for AURKA/B/C
Nature of the series: Thermal shift assay. Type of series: binding. The settings on record: read-out: ΔTm CSNK2A1.

The target of another series is T14, ABL1 (Homo sapiens, UniProt P00519).
T14 construct: purchased in-house thermal shift (DSF) kinase panel (SGC Frankfurt); Promega NanoBRET for AURKA/B/C
T14 sequence (P00519 229-512): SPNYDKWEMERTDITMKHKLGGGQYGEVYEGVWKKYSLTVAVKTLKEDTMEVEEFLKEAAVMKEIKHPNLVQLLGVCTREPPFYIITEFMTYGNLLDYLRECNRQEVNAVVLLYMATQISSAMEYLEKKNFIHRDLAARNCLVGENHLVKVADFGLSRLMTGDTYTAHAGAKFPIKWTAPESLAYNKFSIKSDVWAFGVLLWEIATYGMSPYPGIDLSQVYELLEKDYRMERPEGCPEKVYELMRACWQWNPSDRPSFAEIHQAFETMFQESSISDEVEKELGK
Briefly: Thermal shift assay. The series is classed as binding. The note with it: read-out: ΔTm ABL1.

A further series has as its target T15, MAP2K1 (Homo sapiens, UniProt Q02750).
T15 construct: purchased in-house thermal shift (DSF) kinase panel (SGC Frankfurt); Promega NanoBRET for AURKA/B/C
Briefly: Thermal shift assay. Type of series: binding. The settings on record: read-out: ΔTm MAP2K1.

The test system of another series is MCD4 cells. Briefly: MTS assay (cell viability). Type of series: cell-based, mouse. The settings on record: 30 µM, 10 µM or 1 µM, 1 h; compared to untreated cells.

Where two headings read alike, the source gives them in different places.

T7 sequence (P49841 35-386): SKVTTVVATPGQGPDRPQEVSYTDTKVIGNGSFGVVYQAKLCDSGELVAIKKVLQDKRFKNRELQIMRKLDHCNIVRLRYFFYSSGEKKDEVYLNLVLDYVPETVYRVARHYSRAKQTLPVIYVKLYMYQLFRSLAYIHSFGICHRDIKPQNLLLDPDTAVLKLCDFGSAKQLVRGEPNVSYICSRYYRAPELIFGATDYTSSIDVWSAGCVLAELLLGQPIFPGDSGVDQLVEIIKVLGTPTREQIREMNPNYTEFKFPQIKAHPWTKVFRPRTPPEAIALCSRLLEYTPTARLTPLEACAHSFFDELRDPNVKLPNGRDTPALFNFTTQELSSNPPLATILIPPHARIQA
Sequence of AURKB (Q96GD4 whole entry, the tested form may be a part): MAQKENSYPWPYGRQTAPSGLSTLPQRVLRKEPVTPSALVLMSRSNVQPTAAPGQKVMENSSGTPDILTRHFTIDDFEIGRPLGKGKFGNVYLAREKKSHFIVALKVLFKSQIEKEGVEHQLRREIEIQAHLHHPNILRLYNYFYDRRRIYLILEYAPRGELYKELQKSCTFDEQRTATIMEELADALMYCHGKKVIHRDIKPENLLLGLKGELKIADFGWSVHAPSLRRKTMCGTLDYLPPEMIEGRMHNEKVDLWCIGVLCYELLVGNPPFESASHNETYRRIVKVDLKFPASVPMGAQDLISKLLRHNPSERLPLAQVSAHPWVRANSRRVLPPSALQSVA
T2 sequence (Q9P289 1-300): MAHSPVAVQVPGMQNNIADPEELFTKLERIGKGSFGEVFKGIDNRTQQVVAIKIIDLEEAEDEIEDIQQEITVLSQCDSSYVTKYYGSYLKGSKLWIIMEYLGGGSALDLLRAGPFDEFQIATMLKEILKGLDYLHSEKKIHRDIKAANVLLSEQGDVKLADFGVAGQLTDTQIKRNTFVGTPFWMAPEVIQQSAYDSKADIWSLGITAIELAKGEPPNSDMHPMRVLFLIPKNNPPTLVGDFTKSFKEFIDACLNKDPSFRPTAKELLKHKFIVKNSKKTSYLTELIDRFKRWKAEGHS
T12 sequence (Q9Y2H1 90-453): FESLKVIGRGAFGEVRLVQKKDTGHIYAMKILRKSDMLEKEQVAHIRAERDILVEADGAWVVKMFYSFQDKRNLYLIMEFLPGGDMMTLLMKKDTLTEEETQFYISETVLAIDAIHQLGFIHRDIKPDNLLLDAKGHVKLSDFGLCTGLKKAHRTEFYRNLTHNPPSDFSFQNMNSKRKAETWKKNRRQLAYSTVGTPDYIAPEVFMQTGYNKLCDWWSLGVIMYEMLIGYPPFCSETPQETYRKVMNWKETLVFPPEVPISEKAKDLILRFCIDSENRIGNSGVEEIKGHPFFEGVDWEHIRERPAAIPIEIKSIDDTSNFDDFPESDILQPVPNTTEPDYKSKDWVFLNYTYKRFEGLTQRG
T3 sequence (O96017 210-531): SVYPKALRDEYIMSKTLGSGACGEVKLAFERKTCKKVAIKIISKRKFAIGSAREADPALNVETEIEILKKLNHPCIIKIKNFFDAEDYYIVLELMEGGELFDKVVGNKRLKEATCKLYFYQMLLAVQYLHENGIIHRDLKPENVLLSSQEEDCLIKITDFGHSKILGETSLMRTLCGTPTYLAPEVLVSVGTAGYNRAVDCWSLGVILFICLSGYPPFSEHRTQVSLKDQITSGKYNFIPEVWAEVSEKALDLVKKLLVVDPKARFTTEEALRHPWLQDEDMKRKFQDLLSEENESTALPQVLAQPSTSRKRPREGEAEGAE
T15 sequence (Q02750 68-361): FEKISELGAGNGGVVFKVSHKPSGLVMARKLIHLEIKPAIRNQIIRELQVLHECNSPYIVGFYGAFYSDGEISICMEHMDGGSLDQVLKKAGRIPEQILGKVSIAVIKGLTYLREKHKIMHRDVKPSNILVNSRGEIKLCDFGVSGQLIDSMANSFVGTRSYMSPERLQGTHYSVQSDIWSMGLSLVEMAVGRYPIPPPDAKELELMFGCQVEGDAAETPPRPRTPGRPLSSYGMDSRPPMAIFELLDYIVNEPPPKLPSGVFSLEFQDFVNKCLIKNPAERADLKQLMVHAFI
T13 sequence (P68400 1-337): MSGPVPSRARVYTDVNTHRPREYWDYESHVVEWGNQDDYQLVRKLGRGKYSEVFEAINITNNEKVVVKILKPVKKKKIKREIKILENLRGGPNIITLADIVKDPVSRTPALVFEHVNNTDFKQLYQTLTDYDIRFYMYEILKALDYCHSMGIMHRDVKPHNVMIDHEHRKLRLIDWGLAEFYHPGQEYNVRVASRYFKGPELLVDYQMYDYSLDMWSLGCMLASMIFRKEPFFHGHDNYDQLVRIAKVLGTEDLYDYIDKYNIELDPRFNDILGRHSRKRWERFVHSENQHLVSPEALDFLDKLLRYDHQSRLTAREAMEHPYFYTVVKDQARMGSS

In the case of `CCN1CCN(C(=O)Cc2ccc(Nc3ncc(F)c(Nc4ccc(C(=O)Nc5ccccc5Cl)cc4)n3)cc2)CC1` [Aurora-A inhibitor I, reference compound], at AURKB, the IC50 is above 50 µM. The ΔTm at 10 µM at PAK4 was found to be 0.8 °C; on STK26, 0.6 °C; at CHEK2, 2.2 °C; at DAPK3, 2.8 °C; on GSG2, 0 °C; on CDK2 it was 1.4 °C. Further, the ΔTm at 10 µM is 3.1 °C at GSK3B; 1.1 °C on CAMK1G; 0.2 °C at CSNK1D; 0.4 °C at VRK1; 0.2 °C at GRK5; 2.1 °C at STK38L. For the same compound, the ΔTm at 10 µM at CSNK2A1 amounted to 1.1 °C; at ABL1, 3.1 °C; at MAP2K1, 0.2 °C. The CFL1 phosphorylation result in series [1] (absence and presence of forskolin) is listed as “significantly decreased”. Also, the “CFL1 phosphorylation in combination with forskolin” value in [1] is given as “Significant additive effects”. Besides, the “viability of MCD4 cells” value in the series on MCD4 cells was “did not elicit any significant effects”.

For the compound `O=C(Cc1ccc(Nc2ncc(F)c(Nc3ccc(C(=O)Nc4ccccc4Cl)cc3)n2)cc1)NCCN1CCOCC1` [ERJ2-04], the IC50 on AURKB (NanoBRET, HEK293T cells overexpressing the kinase, Table 2, read-out: AURKB IC50) was above 50 µM. Further, the ΔTm at 10 µM at PAK4 (compound 10 µM, n = 3) was determined as 0.3 °C; at STK26 (compound 10 µM, n = 3), 0.4 °C; on CHEK2 (compound 10 µM, n = 3), 1.2 °C; at DAPK3 (compound 10 µM, n = 3) it was 2.4 °C; on GSG2 (compound 10 µM, n = 3), 0 °C; at CDK2 (compound 10 µM, n = 3), 0.7 °C. Besides, the ΔTm at 10 µM on GSK3B (compound 10 µM, n = 3) was 2 °C; on CAMK1G (compound 10 µM, n = 3), 0.4 °C; at CSNK1D (compound 10 µM, n = 3) it was 0 °C; on VRK1 (compound 10 µM, n = 3), 0.3 °C; on GRK5 (compound 10 µM, n = 3) it was 0.2 °C; on STK38L (compound 10 µM, n = 3), 1.5 °C. The ΔTm at 10 µM on CSNK2A1 (compound 10 µM, n = 3) amounted to 1.3 °C; at ABL1 (compound 10 µM, n = 3), 1.1 °C; at MAP2K1 (compound 10 µM, n = 3), 0 °C. Besides, in series [1], the “CFL1 phosphorylation in combination with forskolin” value is listed as “Significant additive effects”. The “viability of MCD4 cells” value in the series on MCD4 cells is “reduced by 10 or 30 µM”.

A word on the IC50: it is the concentration at which inhibition is half-maximal. The ΔTm is the change in melting temperature against a reference sample.
